# Measured values published in patent publication US9771342B2, “Monascuspurpurones, preparation process thereof, and uses of the monascuspurpurones” (Food Industry Research and Development Institute, priority 2010, dated 2017).
# Assays:
# [1] = system: 3T3-L1 cells; assay: Quantitative real-time PCR of adipocyte differentiation related gene expression; assay type: cell-based
# Protocol: The upstream genes that regulate adipocyte differentiation have been previously reported (F. M. Gregoire, C. M. Smas and H. S. Sul, Understanding adipocyte differentiation. Physiological Reviews, 783 (1998), pp. 783-809.) Among them, aP2, LPL, PPARγ, adiponectin, GLUT4, GLUT1, and C/EBPα were assayed to monitor the regulation of 3T3-L1 preadipocyte differentiation. The housekeeping genes of β-actin and Glyceraldehyde 3-phosphate dehydrogenase (GADPH) were used as control. “do” represents the conditions of the 3T3-L1 preadipocytes before adding inducing agents. In the “NC” groups, the 3T3-L1 preadipocytes were not treated with any inducing agent. Both “do” and “NC” groups were the control groups. In the groups of “insulin,” “E,” and “troglitazone,” the 3T3-L1 preadipocytes were induced with insulin, Compound 1 and insulin, and troglitazone, respectively.
# After culturing the 3T3-L1 cells for 9 days, insulin, Compound 1 and insulin, and troglitazone were added to the medium. The cells were further cultivated, and the samples were collected on day 4 (early adipocyte differentiation stage), day 7 (middle stage) and day 9 (late stage) for the following assays.
# Total RNA was extracted from 3T3-L1 cells using TRIZOL reagent according to the manufacturer's instructions (GIBCO 15596-026; Molecular Research Center, Inc). 4 μg of total RNA from each sample were reverse-transcribed to cDNA according to the protocol of the reverse transcript system [RevertAid H Minus First Strand cDNA Synthesis Kit (Fementas K1632)] with the oligo (dT)18 primers. A TaqMan One-Step RT-PCR Master Mix reagent kit and inventory primer and probes (Applied Biosystems, Foster, Calif.) were applied for the quantitative real-time PCR followed by a TaqMan gene expression assay. The sequences aP2 (Mm00445878_ml), LPL (Mm00434770_ml), PPARγ (Mm01184322_ml), adiponectin (Mm00456425_ml), GLUT4 (Mm01245502_ml), GLUT1 (Mm01192270_ml), C/EBPα (Mm01265914_sl), C/EBPδ (Mm00786711_sl), β-actin (Mm01205647_gl) and GADPH (Mm99999915_gl) were amplified in the PCR. Levels of mRNAs for housekeeping genes (β-actin and GADPH) were also measured by the real-time PCR. After cDNA synthesis, the quantitative real-time PCR was performed with the ABI Prism 7300 instrument (Applied Biosystems, Foster City, Calif., USA) according to the manufacturer's protocol. The PCR conditions were 1 cycle of 50 ° C. for 2 min, then 95 ° C. for 10 min, followed by 40 cycles of 95 ° C. for 15 seconds and 60 ° C. for 1 min. The quantification was performed in duplicate and the experiments were repeated independently three times.
# [2] = system: 3T3-L1 preadipocytes; assay: Enhancement of 3T3-L1 preadipocyte differentiation in insulin differentiation model (AdipoRed staining / triglyceride); assay type: cell-based; details: for Oil Red assay (% of control): insulin model, 3T3-L1 differentiation
# Protocol: Preadipocytes were prepared according to the method described by Wald et al., (2007, “The small molecule harmine is an antidiabetic cell-type-specific regulator of PPARγ expression.” Cell Metabolism, 5(5): 357-370). Preadipocytes were cultured in DMEM (Dulbecco's Modified Eagle's Medium-high glucose, Sigma D-7777) containing 10% of fetal bovine serum (FBS) and incubated at 37° C. in a 5% CO2 incubator.
# Before the differentiation induction experiments, the cells were plated into either 96- or 24-well plates (the concentration of cells in each well was about 2×10^4/cm^2). The plates were incubated for about two days to allow the cells to proliferate to confluence, and then maintained for another two days. The medium was changed to different differentiation media according to different experiments. The day of switching to differentiation medium was designated as day zero.
# The differentiation medium used in insulin differentiation model was DMEM with 10% FBS comprising 10 μg/ml of insulin. Differentiation media with various concentrations of Compound 1 were added to each well of the 24- or 96-well 3T3-L1 preadipocyte plates (the final concentration of Compound 1 in each well was 2 μg/ml, 5 μg/ml, 10 μg/ml, and 20 μg/ml, respectively). The control group was the culture with only the differentiation medium and no sample. The cultures were incubated at 37° C. in a 5% CO2 incubator for seven days (during the period, the differentiation medium and sample were replaced with fresh ones twice), and then the medium was replaced by DMEM with 10% FBS. The cultures were maintained until day 9 or day 10 . The cells of the experiment groups and control groups at day 9 or day 10 were stained with AdipoRed and the concentrations of triglyceride were analyzed.
# The 96-well plates were rinsed with PBS, and 200 μl of PBS and 5 μl of AdipoRed reagent (Lonze Walkersville, Inc., Walkersville, Md., USA, Catalog No. PT-7009) were added to each well. After 10 to 15 minutes, the plates were read with a spectrofluorometer (Infinite M200) set at an excitation wavelength of 485 nm and an emission wavelength of 572 nm. The fluorescent data of the experiment group was divided by the fluorescent data of the control group to obtain a percentage of induction activity.
# The 24-well plates were rinsed with PBS, and the cells were washed off with 0.1 ml of 1% Triton X 100 per well. The cells were then frozen, thawed and centrifuged (10,000 rpm/5 min) and the supernatant was collected. An aliquot of 0.05 ml of the supernatant was analyzed using Triglycerol assay Kit (Audit Diagnostics, Ltd.).
# The protein amounts were analyzed using Bio-Rad Dc Protein assay reagent (Bio-Rad). […]
# [3] = molecular target: T1, PPARγ-LBD (Homo sapiens, UniProt P37231); assay: LanthaScreen TR-FRET PPAR Competitive Binding Assay; details: tested at 10-160 μg/ml, 2 hours at room temperature
# T1 construct: 10 μL 4× PPARγ-LBD/Tb-anti-GST Ab; purchased Invitrogen PV4894
# T1 sequence (P37231 238-503 limits assumed): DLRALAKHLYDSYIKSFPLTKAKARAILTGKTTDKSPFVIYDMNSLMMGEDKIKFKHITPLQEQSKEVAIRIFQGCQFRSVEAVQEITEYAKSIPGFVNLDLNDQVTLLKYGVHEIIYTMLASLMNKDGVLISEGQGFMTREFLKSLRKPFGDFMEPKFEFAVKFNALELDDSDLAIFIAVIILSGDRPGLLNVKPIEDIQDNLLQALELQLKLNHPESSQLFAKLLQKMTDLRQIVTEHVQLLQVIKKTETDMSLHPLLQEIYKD
# Protocol: 10, 20, 40, 80 and 160 μg/ml of Compound 1 were tested in the ligand binding assay conducted following the manuals described in LanthaScreen TR-FRET PPAR Competitive Binding Assay kits (Invitrogen New York, N.Y. Catalog no. PV4894). In a 96-well microtiter plate, the reagents were pipetted into each well in the following order: 20 μL 2× Test Compound, 10 μL 4× Fluormone™ Pan-PPAR Green and 10 μL 4× PPARγ-LBD/Tb-anti-GST Ab in a total assay volume of 40 μl/well. The reagents were gently mixed by placing the microtiter plate on an orbital plate shaker for 30 seconds. The samples were incubated at room temperature (20-25° C.) for 2 hours in the dark allowing the binding of the samples to reach equilibrium. The fluorescent emission signal of each well was measured at 495 nm and 520 nm with an Absorbance Microplate Reader (Spectra Max M5 from Molecular Devices LLC).
# [4] = day 4 (early stage), Compound 1 and insulin vs insulin group
# [5] = day 7 (middle stage), Compound 1 and insulin vs insulin group
# [6] = day 9 (late stage), Compound 1 and insulin vs insulin group
# [7] = early, middle and late adipocyte differentiation stages
substance,measurement,setting,value
"rel-(1S,7aR,3aR)-1-Hexanoyl-5,13-dimethyl-6-(2-oxopentyl)-7a,7-dihydrobenzofuran-2,4-dione [Compound 1]","expression of C/EBPα, increase compared to insulin group",[1]; [4],about 50%
same,expression of GluT1 relative to insulin group,[1]; [4],0.6 fold
same,"expression of PPARγ, increase compared to insulin group",[1]; [4],about 50%
same,"expression of adiponectin, increase compared to insulin group",[1]; [4],about 50%
same,expression of GluT1 relative to insulin group,[1]; [5],0.3 fold
same,expression of LPL relative to insulin group,[1]; [5],0.3 fold
same,expression of PPARγ relative to insulin group,[1]; [5],1.8 fold
same,expression of aP2 relative to insulin group,[1]; [5],0.3 fold
same,expression of GluT1 relative to insulin control,"[1]; day 9 (late stage), Compound 1 and insulin vs insulin control",0.6 fold
same,expression of C/EBPα relative to insulin group,[1]; [6],1.59 folds
same,expression of PPARγ relative to insulin group,[1]; [6],1.35 folds
same,expression of adiponectin relative to insulin group,[1]; [6],1.49 folds
same,"effect on the expression of aP2, LPL, adiponectin, GLUT4, and GLUT1",[1]; [7],little effect
same,effect on the expressions of PPARγ and C/EBPα,[1]; [7],can stimulate the expressions of PPARγ and C/EBPα
same,Oil Red assay (% of control),[2]; 2 μg/ml,127 ± 4 % of control
same,Oil Red assay (% of control),[2]; 5 μg/ml,140 ± 5 % of control
same,Oil Red assay (% of control),[2]; 10 μg/ml,148 ± 8 % of control
same,"triglyceride droplets in differentiated adipocytes, inverted microscope","[2]; 2, 5 and 10 μg/ml vs control culture (insulin only), FIG. 4",more triglyceride droplets than the control culture
same,PPARγ binding IC50,[3],68 ± 21 µg/mL
